Test results as given in patent EP2667887B1, “PHARMACEUTICAL COMPOSITION COMPRISING THE PEPTIDE GLU-ASP-GLY AND USE FOR TREATING HELICOBACTER PYLORI INDUCED GASTRODUODENAL DISEASES” («Garmonia», Ltd., priority 2011, dated 2012).

Key:
modeled ulcer = assay: Morphology study of the induced gastric ulcer (cysteamine-HCL + Helicobacter pylori); type: in vivo, Sprague Dawley rats
Description: (§1) The study was carried out on 90 male Sprague Dawley rats (180-220 g) randomly subdivided into 9 groups (10 animals per group): • Group 1 - intact rats (saline solution) • Group 2 - modeled ulcer + saline solution • Group 3 (6 subgroups) - modeled ulcer + H-Glu-Asp-Gly-OH • Group 4 - modeled ulcer + Klacid antibiotic
(§2) Ulcer was modeled by three-time administration (in 4 hours) in the rat stomach of cysteamine-HCL (Aldrich, Milwannee, WI) by means of a probe in the dose of 25 mg per 100 g of body weight. The ulcer, approximately 28 mm^2 in size, appeared at the boundary between antral and fundal segments of the stomach 12 hours after the last administration. Simultaneously with the first administration of cysteamine-HCL a Helicobacter pylori culture (Curtin Matheson Scientific Inc, strain Cag J117, 100 microbial cells) was administered in the rat stomach through the same probe.
(§3) A means on the basis of the pharmaceutical composition comprising the studied peptide H-Glu-Asp-Gly-OH was administered subcutaneously in the dose of 1 µg per kg of animal body weight (group 3a), 2,5 µg per kg of body weight (group 3b) and 10 µg per kg of body weight (group 3c) in 0,5 ml of saline solution daily, for 5 days from the occurrence of the stomach ulcer.
as §3, with “The means” for “A means”, “administered intragastrically (through a probe)” for “administered subcutaneously”, “(group 3d),” for “(group 3a),”, “(group 3e)” for “(group 3b)”, “(group 3f)” for “(group 3c)”
Antibiotic Klacid (clarithromycin, Abbott) was administered intramuscularly in the dose of 10 mg in 1 ml of saline solution daily for 5 days from the occurrence of the stomach ulcer.
Material for study was taken from ulcer edge on the 7th day (for western blot assay and polymerase chain reaction in real time - RT-PCR), as well as on the 7th, 15th and 21st day for morphology study and confocal microscopy.
For a morphology study, pieces of gastric mucous membrane from the ulcer edge were fixed in 10% neutral formalin (pH 7.2), then the material was dried out in a Leica TP1020 automatic station (Leica) and covered with paraffin. 5 µm thick paraffin slices were placed on object plates covered with a poly-L-lysine film (Sigma). For a visual study the slices were stained with hematoxylin and eosin, as well as with picrofuxin by the van Gison method.

[1] = tested on: gastric epithelial cell mitochondria; assay: Mitochondrial GFP expression in gastric epithelium after ulcer induction (confocal microscopy, in vivo study); set-up: species or system Sprague Dawley rats; conditions: both methods, three doses
Description: as §1, §2, §3
The means on the basis of the pharmaceutical composition comprising the studied peptide H-Glu-Asp-Gly-OH was administered intragastrically (through a probe) in the dose of 1 µg per kg of animal body weight (group 3d), 2,5 µg per kg of body weight (group 3e) and 10 µg per kg of body weight (group 3f) in 0,5 ml of saline solution daily, for 5 days from the occurrence of the stomach ulcer. […]
The status of isolated mitochondria was assessed using immunofluorescent confocal laser microscopy. […]
Confocal microscopy of mitochondria with optical density evaluation was carried out in an inverted confocal microscope Olympus Fluoview CM FV300-IX70 using an apochromatic lens 606 UPlan (Olympus). A 488 nm excitation wave of argon laser was used in each chamber to specify mito-GFP fluorescence that verifies the structure of mitochondria.

[2] = tested on: constitutive and inducible NO synthase (cNO and iNO respectively), HSP70, and NF-kappa b-p65 factor; assay: Western blot of signal molecules from ulcer edge in the rat gastric ulcer model with Helicobacter pylori; type: in vivo, Sprague Dawley rats; conditions: 7th day from ulcer induction; doses of 1 µg to 10 µg per kg of body weight daily for 5 days
Description: as §1, §2
as §3, with “ulcer. […]” for “ulcer.”

[3] = Subacute toxicity study, 90 days; type: in vivo, white mongrel male rats; conditions: rats, daily for 90 days, 1 µg/kg, 0,1 mg/kg, doses exceed the therapeutic one by 100-1000 times
Description: General toxicity of peptide H-Glu-Asp-Gly-OH was studied in accordance with the requirements of "Manual for Experimental (Pre-Clinical) Study of New Pharmacological Substances" (2000): acute toxicity in case of a single administration of the preparation, as well as subacute and chronic toxicity in case of a long-term administration of the peptide.
Subacute toxicity study was carried out on 64 white mongrel male rats with body weight 180-220 g. Experimental animals received the preparation daily, once a day for 90 days in the doses of 1 µg/kg, 0,1 mg/kg, 1 mg/kg in 0,5 ml of sterile 0,9% NaCl solution. Control animals were treated with sterile 0,9% NaCl solution in the same volume. Before the administration of the preparation, as well as on the 30th, 60th and 90th day after the beginning of the administration of the preparation peripheral blood morphology and properties were studied in the animals. Upon completion of the experiment biochemical and coagulology indices of the blood were evaluated.

glutamyl-aspartyl-glycine [H-Glu-Asp-Gly-OH]
ulcer pathomorphosis, 7th day (modeled ulcer; 7th day after ulcer induction, treatment daily for 5 days, peptide 1, 2,5, 10 µg/kg subcutaneously or intragastrically, Klacid 10 mg intramuscularly): a decrease both in the area of the ulcerous lesion and in its depth was observed
ulcer pathomorphosis, 15th day (modeled ulcer; 15th day after ulcer induction, treatment daily for 5 days, peptide 1, 2,5, 10 µg/kg subcutaneously or intragastrically, Klacid 10 mg intramuscularly): a significant decrease in ulcerous lesion area and depth was observed
ulcer pathomorphosis, 21st day (modeled ulcer; 21st day after ulcer induction, treatment daily for 5 days, peptide both methods of administration and three dosages, Klacid 10 mg intramuscularly): no ulcerous lesions were macroscopically observed
pathomorphosis of an induced gastric ulcer (Fig. 12 C) (modeled ulcer; 21st day, peptide dose 2,5 µg/kg): complete epithelization of the ulcer
delay of epithelialization of the ulcerous lesion compared to higher doses (modeled ulcer; dose 1,0 µg/kg (Groups 3a and 3d) versus 2,5 µg/kg and 10 µg/kg): 2 to 3 days
mitochondrial GFP expression (optical density), 7th day ([1]; 7th day after ulcer induction, intact 3.12±0.22, ulcer 0.54±0.02): 2.86±0.21 conv. units
mitochondrial GFP expression (optical density), 15th day ([1]; 15th day after ulcer induction, intact 3.17±0.18, ulcer 0.87±0.04): 3.03±0.16 conv. units
mitochondrial GFP expression (optical density), 21st day ([1]; 21st day after ulcer induction, intact 3.19±0.18, ulcer 1.67±0.09): 3.16±0.18 conv. units
level of production of signal molecules (both NO synthase forms, HSP70, NF kappa b-p65) in the mucous membrane of the edge of the ulcer [2]: comparable with commonly normal indices
subacute toxicity [3]: no side effects
